Consider two molecules from publication PMC7311950, “Potent Tetrahydroquinolone Eliminates Apicomplexan Parasites” (Frontiers in Cellular and Infection Microbiology, 2020).

In brackets after ≈: the same amount, converted by molar mass. Read-outs that look alike come from different tables or passages of the source.

Data set [1] has as its system T. gondii RH-YFP tachyzoites. Kind of data set: In vitro challenge assay, RH strain YFP tachyzoites in HFF. Type of data set: cell-based. As to conditions: Toxoplasma gondii.
Data set [2] concerns T. gondii EGS strain bradyzoites. The data set can be described thus: In vitro challenge assay for EGS strain bradyzoites. Type of data set: cell-based, Toxoplasma gondii. As to conditions: for number of true cysts and small organisms: EGS strain, at 1 and 10 μM, immunofluorescence microscopy; for IC50: EGS strain in HFF, Figure 1A, read-out: Brady IC50. On the procedure: HFF cells were grown in IMDM on removable, sterile glass cover slips in the bottom of a clear, flat-bottomed 24-well plate. Cultures were infected with 3 × 10^4 EGS strain parasites per well, in 0.5 mL media. The plate was returned to incubator at 37°C overnight. The following day, the media was removed. Colorless IMDM and compounds were added to make various concentrations of the drug. Total volume was 0.5 mL. Two wells had media only, as a control. Plates were returned to the 37°C incubator for 72 h, checked once each 24 h. If tachyzoites were visible in the control before 72 h, cells were fixed and stained. Cells were fixed using 4% paraformaldehyde and stained with Fluorescein-labeled Dolichos Biflorus Agglutinin, DAPI, and antibody to BAG1. Disks were removed, mounted on glass slides, and visualized using microscopy (Nikon Tl7). Slides were scanned using a CRi Panoramic Scan Whole Slide Scanner and viewed using Panoramic Viewer Software. Effects of compounds were quantitated by counting cysts in controls and treated cultures. Dolichos staining delimited structures and single organisms that remained were counted in a representative field of view. This was then multiplied by a factor determined by the total area of the cover slip in order to estimate the number of cysts and organisms in each condition. When the following forms were observed: “true cysts” with a dolichos-staining wall, “pseudocysts” or tight clusters of parasites, and small organisms, if there were fewer than four parasites visible in a cluster, organisms were counted individually (as “small organisms”). The entire scanned coverslip with all fields was also reviewed by 3 observers to confirm consistency.

A short description of data set [3]: Kinetic solubility in PBS pH 7.4 (Chem Partners). On the procedure: (§1) The effects of changing R1 as 7-Et, 7-Me, 6-CF3, or 6-Me on activity against RH strain tachyzoites, kinetic solubility, and metabolic stability were compared. Kinetic solubility and metabolic stability in human or murine liver microsomes were measured. The hERG (human Ether-à-go-go-Related) liability was also determined. The hERG gene (KCNH2) encodes a protein Kv11.1, the alpha subunit of a potassium ion channel. This channel conducts the rapid component of the delayed rectifier potassium current, IKr, which is critical for repolarization of cardiac action potentials. A reduction in hERG currents from adverse drug effects can lead to long QT interval syndromes. These syndromes are characterized by action potential prolongation, lengthening of the QT interval on surface EKG, and an increased risk for “torsade de pointes” arrhythmias and sudden death. The MDCK-MDR1 Permeability Assay was also performed. MDCK-MDR1 refers to the ability of a compound to permeate across membranes of MDCK-MDR1 (Madin Darby canine kidney [MDCK] cells with the MDR1 gene [ABCB1], the gene encoding for the efflux protein, P-glycoprotein (P-gp)) in vitro. Assessing transport in both directions (apical to basolateral and basolateral to apical) across the cell monolayers enables an efflux ratio to be determined. […] This provides a prediction of blood brain barrier (BBB) penetration potential/permeability and efflux ratio. Effect in CACO-2 (Colon Adenocarcinoma cells) as a permeability assay and on cytochrome P450 (CYP 450) were also determined. CYP enzymes catalyze oxidative biotransformation (phase 1 metabolism) of most drugs. CYP enzymes, bind to membranes in a cell (cyto) and contain a heme pigment (chrome and P) that absorbs light at a wavelength of 450 nm when exposed to carbon monoxide. Metabolism of a drug by CYP enzymes is a major source of variability in drug effect. These were measured by Chem Partners. The relative effect on HFF and parasite enzymes also were compared.

The nature of data set [4]: Metabolic stability in human liver microsomes. As to conditions: for Human liver microsomes: stability, Figure 2E. On the procedure: as §1
In vitro absorption, distribution, metabolism, excretion, and toxicity (ADMET) analyses of the THQ compounds were outsourced to ChemPartner Shanghai Ltd. ELQ-271 (synthesized in-house) was tested as a comparison.
In general terms: Liver microsomes are a subcellular fraction often used to study metabolism.

Data set [5] deals with CYP450 2C9 (Homo sapiens, UniProt P11712). Kind of data set: CYP450 inhibition, 2C9. It counts as in vitro ADME.
Data set [6] deals with hERG (Homo sapiens, UniProt Q12809). The data set can be described thus: hERG liability. Type of data set: biochemical.
The subject of data set [7] is T. gondii RH-YFP tachyzoites. The data set can be described thus: Synergy studies with RH strain YFP tachyzoites. Type of data set: cell-based, Toxoplasma gondii. On the procedure: Atovaquone and pyrimethamine were used to test whether they are synergistic with JAG21. Serial dilutions of the combination of JAG21 and either atovaquone or pyrimethamine were used in an in vitro challenge assay as described above. The EC50 of each compound and the combination of two compounds were determined. The effect of the combination of drugs was calculated with the following formula:C= [A]c/[A]a+[B]c/[B]a. If C is lower than 1, the two compounds tested have synergistic effect; if C is >1, the two compounds tested have antagonist effect and if C is 1 they are additive.

[8] abbreviates: RH-YFP tachyzoites in HFF, Figure 1A, read-out: Tachy IC50.
Where [9] appears, read: T. gondii tachyzoites, initial library, read-out: IC50.
[10] abbreviates: PBS, pH 7.4, aqueous solubility (PBS, pH 7.4), amorphous compounds.

CYP450 2C9, sequence (P11712 whole entry): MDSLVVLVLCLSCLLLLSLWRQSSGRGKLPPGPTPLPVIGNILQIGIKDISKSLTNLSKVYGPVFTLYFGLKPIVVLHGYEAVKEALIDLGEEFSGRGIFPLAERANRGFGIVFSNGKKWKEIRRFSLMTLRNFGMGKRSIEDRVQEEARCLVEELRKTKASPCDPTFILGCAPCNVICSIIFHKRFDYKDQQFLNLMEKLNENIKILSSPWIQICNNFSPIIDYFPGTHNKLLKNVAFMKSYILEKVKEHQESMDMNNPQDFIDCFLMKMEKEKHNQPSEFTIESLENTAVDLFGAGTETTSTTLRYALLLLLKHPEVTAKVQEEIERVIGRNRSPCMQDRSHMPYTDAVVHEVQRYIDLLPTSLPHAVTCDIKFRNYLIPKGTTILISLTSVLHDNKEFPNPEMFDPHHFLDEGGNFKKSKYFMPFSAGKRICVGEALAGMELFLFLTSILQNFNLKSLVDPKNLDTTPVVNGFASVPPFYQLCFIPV
hERG, sequence (Q12809 whole entry): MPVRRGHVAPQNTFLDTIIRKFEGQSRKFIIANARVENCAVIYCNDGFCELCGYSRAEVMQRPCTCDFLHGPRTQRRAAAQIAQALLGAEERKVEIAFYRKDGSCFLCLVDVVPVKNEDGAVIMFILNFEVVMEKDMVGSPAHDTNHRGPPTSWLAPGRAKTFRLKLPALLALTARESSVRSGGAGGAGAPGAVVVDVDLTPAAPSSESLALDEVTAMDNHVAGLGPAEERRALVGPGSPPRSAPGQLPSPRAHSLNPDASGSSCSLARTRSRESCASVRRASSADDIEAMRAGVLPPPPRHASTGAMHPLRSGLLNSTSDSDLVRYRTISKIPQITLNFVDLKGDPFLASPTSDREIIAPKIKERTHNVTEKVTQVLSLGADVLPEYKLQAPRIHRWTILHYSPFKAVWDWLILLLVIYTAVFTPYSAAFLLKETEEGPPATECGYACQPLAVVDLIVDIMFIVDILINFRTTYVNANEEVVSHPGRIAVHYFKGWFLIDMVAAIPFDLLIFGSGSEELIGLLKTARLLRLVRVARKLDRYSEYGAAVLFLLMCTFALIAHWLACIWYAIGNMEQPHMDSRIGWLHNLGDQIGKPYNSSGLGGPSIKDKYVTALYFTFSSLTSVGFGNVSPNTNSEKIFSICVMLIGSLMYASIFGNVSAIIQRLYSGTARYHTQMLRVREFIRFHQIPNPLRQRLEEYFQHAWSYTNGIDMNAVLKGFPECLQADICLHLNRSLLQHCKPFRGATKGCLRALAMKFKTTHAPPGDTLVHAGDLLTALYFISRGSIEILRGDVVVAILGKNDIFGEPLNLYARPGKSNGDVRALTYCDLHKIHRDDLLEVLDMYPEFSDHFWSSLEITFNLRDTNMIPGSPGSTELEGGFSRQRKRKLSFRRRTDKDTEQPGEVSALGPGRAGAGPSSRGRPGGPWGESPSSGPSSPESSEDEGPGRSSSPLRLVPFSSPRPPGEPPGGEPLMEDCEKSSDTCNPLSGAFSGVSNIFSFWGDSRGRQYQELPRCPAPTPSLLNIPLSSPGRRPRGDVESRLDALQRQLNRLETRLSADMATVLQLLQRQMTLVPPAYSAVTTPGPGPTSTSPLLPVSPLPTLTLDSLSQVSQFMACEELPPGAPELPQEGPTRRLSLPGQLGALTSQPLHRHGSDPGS

For orientation: IC50 means the point on the concentration scale where inhibition reaches its midpoint. The IC90 is the point of the concentration-response curve where the effect stands at 90%. A word on the solubility: it is how much of the substance goes into solution per volume. On to `Cc1[nH]c2c(c(=O)c1-c1ccc(Oc3ccc(OC(F)(F)F)cc3)cc1)CCCC2` [JAG21, 2-Methyl-3-(4-(4-(Trifluoromethoxy)Phenoxy)Phenyl)-5,6,7,8-Tetrahydroquinolin-4-One], for which the IC50 in data set [1] (setting [8]) came out at 120 nM; in data set [1] (setting [9]) it was 55 nM; in data set [2] (Toxoplasma gondii), 2000 nM; in data set [5], 4000 nM; in data set [6], 22000 nM. Further, the concentration for an effect of 90% (IC90) was less than 50 nM in data set [1] (supplement summary) and less than 1000 nM in data set [2] (Toxoplasma gondii, supplement summary). In addition, the “EGS bradyzoites in treated cultures” value in data set [2] (500 nM) was “we do not see EGS bradyzoites”. For the same molecule, the “number of true cysts and small organisms” value in data set [2] was “statistically significant reduction”. The solubility in data set [3] (setting [10]) was 7 µM (≈ 2.91 µg/mL); in data set [3] (PBS, pH 7.4, solubility of the microcrystalline form, microcrystalline form) it was 3.5 µM (≈ 1.45 µg/mL); in data set [3] (pH 7.4), 7.07 µM (≈ 2.94 µg/mL). Also, the “remaining in human liver microsomes” value in data set [4] (after 45 min) is more than 99%. The Human liver microsomes entry in data set [4] is “∞”. In addition, the “effect of combination with pyrimethamine” value in data set [7] (data not shown) is listed as “no antagonism was observed”. Besides, in data set [7] (isobologram), the “effect of combination with atovaquone” value is given as “synergy”.
Usually half-life stands for the time needed for the level to fall by half in the phase considered. In the case of `Cc1[nH]c2c(c(=O)c1-c1ccc(Oc3ccc(Cl)cc3)cc1)CCCC2` [JAG50], the results for the IC50 in data set [1] (setting [8]), in data set [1] (setting [9]) and in data set [2] (Toxoplasma gondii) were 85 nM, 33 nM and 2000 nM, respectively. For the same molecule, in data set [2], the “number of true cysts and small organisms” value is “statistically significant reduction”. Further, the solubility in data set [3] (setting [10]) came to 16 µM (≈ 5.85 µg/mL); in data set [3] (pH 7.4) it was 16.4 µM (≈ 6 µg/mL). In data set [4] (human, liver microsomes), the half-life amounted to 1.65 h. In data set [4], this molecule returned a Human liver microsomes of 99.04 min.
